In the supplement of paper PMC10307832:

How the values were obtained:
Assay in all cases: relative viability (nuclei count vs DMSO), 5 days (fraction); higher = more cells survive
Linsitinib + Pictilisib = compound: C[C@]1(O)C[C@@H](c2nc(-c3ccc4ccc(-c5ccccc5)nc4c3)c3c(N)nccn32)C1 [Linsitinib] + CS(=O)(=O)N1CCN(Cc2cc3nc(-c4cccc5[nH]ncc45)nc(N4CCOCC4)c3s2)CC1 [Pictilisib] (partner 1 µM)
Outline: (§1)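 Lung cancer cell lines in 1536-well plates got either a single drug or a fixed anchor-drug dose together with five library-drug doses (not always all listed) in √10 steps, by pin tool, on the day after seeding. Nuclei were counted after 5 days, and relative viability is the treated-to-vehicle ratio of nuclei counts. Values are medians of duplicate plates.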

Linsitinib + Crizotinib = compound: C[C@]1(O)C[C@@H](c2nc(-c3ccc4ccc(-c5ccccc5)nc4c3)c3c(N)nccn32)C1 [Linsitinib] + C[C@@H](Oc1cc(-c2cnn(C3CCNCC3)c2)cnc1N)c1c(Cl)ccc(F)c1Cl [Crizotinib] (partner 1 µM)
Outline: as §1

Ispinesib + Crizotinib = compound: Cc1ccc(C(=O)N(CCCN)[C@@H](c2nc3cc(Cl)ccc3c(=O)n2Cc2ccccc2)C(C)C)cc1 [Ispinesib] + C[C@@H](Oc1cc(-c2cnn(C3CCNCC3)c2)cnc1N)c1c(Cl)ccc(F)c1Cl [Crizotinib] (partner 1 µM)
Outline: as §1

Ispinesib + Pemetrexed = compound: Cc1ccc(C(=O)N(CCCN)[C@@H](c2nc3cc(Cl)ccc3c(=O)n2Cc2ccccc2)C(C)C)cc1 [Ispinesib] + Nc1nc2[nH]cc(CCc3ccc(C(=O)N[C@@H](CCC(=O)O)C(=O)O)cc3)c2c(=O)[nH]1 [Pemetrexed] (partner 0.2 µM)
Outline: as §1

Row | Cell Line | relative viability (Linsitinib + Pictilisib; first compound 0.01 µM) | relative viability (Linsitinib + Pictilisib; first compound 0.03162 µM) | relative viability (Linsitinib + Pictilisib; first compound 0.1 µM) | relative viability (Linsitinib + Pictilisib; first compound 1 µM) | relative viability (Linsitinib + Crizotinib; first compound 0.01 µM) | relative viability (Linsitinib + Crizotinib; first compound 0.03162 µM) | relative viability (Linsitinib + Crizotinib; first compound 0.1 µM) | relative viability (Linsitinib + Crizotinib; first compound 1 µM) | relative viability (Ispinesib + Crizotinib; first compound 0.001 µM) | relative viability (Ispinesib + Crizotinib; first compound 0.003162 µM) | relative viability (Ispinesib + Crizotinib; first compound 0.01 µM) | relative viability (Ispinesib + Crizotinib; first compound 0.03162 µM) | relative viability (Ispinesib + Crizotinib; first compound 0.1 µM) | relative viability (Ispinesib + Pemetrexed; first compound 0.001 µM) | relative viability (Ispinesib + Pemetrexed; first compound 0.003162 µM) | relative viability (Ispinesib + Pemetrexed; first compound 0.01 µM) | relative viability (Ispinesib + Pemetrexed; first compound 0.03162 µM) | relative viability (Ispinesib + Pemetrexed; first compound 0.1 µM) | relative viability (Linsitinib + Pictilisib; first compound 0.3162 µM) | relative viability (Linsitinib + Crizotinib; first compound 0.3162 µM)
1 | HOP-62 | 0.894 | 0.715 | 0.934 | 0.356 | 0.959 | 1.02 | 0.798 | 0.954 | 0.966 | 1.04 | 0.792 | 0.976 | 0.918 | 0.319 | 0.327 | 0.34 | 0.26 | 0.117 | – | –
2 | LC-2-ad | 0.423 | 0.369 | 0.409 | 0.269 | 0.479 | 0.566 | 0.451 | 0.311 | 0.447 | 0.317 | 0.439 | 0.368 | 0.283 | 0.288 | 0.259 | 0.262 | 0.23 | 0.149 | 0.396 | 0.357
3 | NCI-H522 | – | – | – | – | – | – | – | – | – | – | – | – | – | 0.961 | 0.975 | 0.859 | 0.586 | 0.364 | – | –
4 | NCI-H322M | 0.496 | 0.502 | 0.506 | 0.433 | 0.912 | 0.879 | 0.961 | 0.855 | 1.03 | 0.918 | 0.976 | 0.747 | 0.973 | 0.665 | 0.616 | 0.585 | 0.525 | 0.425 | 0.503 | 0.753
5 | SK-LU-1 | 0.54 | 0.548 | 0.706 | 0.592 | 0.805 | 0.752 | 0.859 | 0.993 | 1.05 | 0.932 | 0.968 | 0.776 | 0.439 | 1.07 | 0.972 | 1.27 | 0.897 | 0.412 | – | –
6 | NCI-H1734 | 0.474 | 0.456 | 0.392 | 0.295 | 0.592 | 0.723 | 0.719 | 0.462 | 0.662 | 0.77 | 0.893 | 0.648 | 0.483 | 0.414 | 0.415 | 0.395 | 0.336 | 0.248 | 0.421 | 0.694
7 | HCC-44 | 0.579 | 0.634 | 0.66 | 0.311 | 0.704 | 0.78 | 0.739 | 0.612 | 0.796 | 0.905 | 0.951 | 0.776 | 0.121 | 0.682 | 0.663 | 0.657 | 0.496 | 0.391 | 0.317 | 0.56
8 | NCI-H1703 | 0.29 | – | 0.216 | 0.234 | 0.585 | – | 0.595 | 0.35 | 0.811 | 0.454 | 0.185 | 0.0885 | 0.285 | – | – | – | – | – | 0.28 | 0.93
9 | NCI-H2170 | 0.336 | 0.317 | 0.308 | 0.23 | 1.12 | 1.02 | 1.2 | 1.11 | 1.34 | 1.31 | 1.33 | 0.693 | 0.411 | 0.357 | 0.266 | 0.256 | 0.205 | 0.158 | 0.26 | 0.89
10 | NCI-H1395 | 0.568 | 0.603 | 0.618 | 0.556 | – | – | – | – | – | – | – | – | – | 0.986 | 1.04 | 0.725 | 0.432 | 0.377 | 0.573 | –
11 | NCI-H1355 | 0.433 | 0.437 | 0.343 | 0.359 | 0.974 | 0.997 | 0.888 | 0.664 | 1.13 | 1.19 | 1.29 | 1.15 | 0.451 | 1.13 | 1.09 | 1.16 | 0.809 | 0.259 | 0.228 | 0.79
12 | NCI-H1650 | 0.529 | 0.485 | 0.556 | 0.356 | 1.03 | 1.08 | 0.963 | 0.799 | 0.91 | 1.05 | 0.769 | 0.223 | 0.325 | 0.381 | 0.368 | 0.372 | 0.321 | 0.161 | 0.138 | 0.915
13 | IA-LM | 0.329 | 0.409 | 0.334 | 0.156 | 0.763 | 0.775 | 0.736 | 0.496 | 0.897 | 0.912 | 0.7 | 0.131 | 0.199 | – | – | – | – | – | 0.349 | 0.656
14 | NCI-H1666 | 0.376 | 0.286 | 0.296 | 0.307 | 0.949 | 1.13 | 0.907 | 0.552 | 0.952 | 1.12 | 0.948 | 0.794 | 0.293 | 0.89 | 0.786 | 0.883 | 0.91 | 0.817 | 0.162 | 0.594
15 | HCC-78 | 0.205 | 0.225 | 0.162 | 0.204 | 0.298 | 0.356 | 0.278 | 0.265 | 0.348 | 0.341 | 0.438 | – | 0.272 | 0.916 | 0.931 | 0.937 | 0.932 | 0.617 | 0.203 | 0.338
